Measured values as given in patent publication US5527821A, “Pharmacologically active alpha-[tertiary-aminomethyl]-benzenemethanol derivatives” (Pharmacia AB, priority 1992, dated 1996).
Counter-ions that a name gives are not always drawn. Like-named read-outs stand apart in the source and are kept apart here.

How the values were obtained:
isolated rabbit urethra = assay: Effects on the isolated rabbit urethra (contraction, in vitro); assay type: cell-based; conditions: Krebs solution, 37° C.; for Emax / Urethra, in vitro: Max. contraction: cumulative addition (12 concentrations), reference noradrenaline 6×10^-5 M; for EC50: cumulative addition
Description: (§1) Female rabbits weighing 2.5-3.0 kg were sacrificed and exsanguinated. The urethra and portal vein were dissected out and suspended in organ baths containing oxygenated Krebs solution at 37° C. Two rings of urethra (4 mm broad) and two longitudinal strips of the portal vein were used. The basal tension was adjusted to about 10 mN after an equilibration time of 60 minutes. Isometric tension was recorded via a force transducer (Statham FT03) and registered on a Grass polygraph model 7.
(§2) Submaximum concentrations of noradrenaline (6×10^-5 M) were used to achieve reference contractions.
(§3) The test substances were added cumulatively (12 concentrations) until a maximum response was obtained.

[1] = tested on: isolated rabbit portal vein; assay: Effects on the isolated rabbit portal vein (contraction, in vitro); assay type: cell-based; conditions: for EC50 / Emax: Oryctolagus cuniculus; for EC50: read-out: Portal vein, in vitro: EC50 value (effective concentration inducing a half maximum contraction); for Portal vein, in vitro: Max. contraction / Emax: cumulative addition (12 concentrations), reference noradrenaline 6×10^-5 M
Description: as §1, §2, §3

[2] = tested on: urethra (urethral pressure in anaesthetized rabbits); assay: Effects on urethral pressure in anaesthetized rabbits; assay type: in vivo, rabbit; conditions: reference noradrenaline 0.025 μg/kg i.v.
Description: (§4) Rabbits, weighing 2.5-3 kg, were anaesthetized by pentobarbitone (initially 40 mg/kg i.v. and for maintenance anaesthesia 10 mg/kg, h). For recording of urethral pressure a catheter (Dog cath nr 6.) was inserted into the urethra and placed at the point of highest pressure. The basal urethral pressure was approximately 10 cm H2 O. The blood pressure was recorded via a catheter (PP50) inserted into a femoral artery. Substances were injected intravenously into a catheter in a femoral vein. The continuous intravenous infusion of pentobarbitone kept the depth of anesthesia at a constant level through the experiment. Three consecutive noradrenaline injections (0.025 μg/kg i.v.) were given initially to constitute reference responses. Repeated intravenous injections of different doses of the same test compound were given in a randomized manner. […] In other pharmacological experiments (not described here) it was also shown that the described compounds had no or minimal effect on other organs, such as for example the urinary bladder, central nervous system, intestine, vas deferens etc.

[3] = tested on: blood pressure in anaesthetized rabbits; assay: Effects on blood pressure in anaesthetized rabbits; assay type: in vivo, rabbit; conditions: i.v. injections of different doses, femoral artery catheter
Description: as §4

[4] = Oryctolagus cuniculus, read-out: Urethra, in vitro: Max. contraction, female rabbit urethra rings
[5] = read-out: Urethra, in vitro: EC50-value (effective concentration inducing a half maximum contraction), female rabbit urethra rings
[6] = female rabbit portal vein longitudinal strips, Krebs solution, 37° C.
[7] = anaesthetized rabbits, i.v. injections of different doses
[8] = read-out: Portal vein, in vitro: Max. contraction, female rabbit portal vein longitudinal strips, Krebs solution, 37° C.
[9] = Oryctolagus cuniculus, read-out: Urethra, in vitro: EC50-value (effective concentration inducing a half maximum contraction), female rabbit urethra rings
[10] = Oryctolagus cuniculus, iv, read-out: Max. urethral pressure in vivo, in % of NA-max, anaesthetized rabbits, i.v. injections of different doses
[11] = Oryctolagus cuniculus, female rabbit urethra rings, read-out: Urethra, in vitro: Max. contraction
[12] = Oryctolagus cuniculus, female rabbit urethra rings, read-out: Urethra, in vitro: EC50-value (effective concentration inducing a half maximum contraction)
[13] = female rabbit portal vein longitudinal strips, Krebs solution, 37° C., read-out: Portal vein, in vitro: Max. contraction
[14] = female rabbit portal vein longitudinal strips, cumulative addition, Krebs solution, 37° C.
[15] = Oryctolagus cuniculus, iv, anaesthetized rabbits, i.v. injections of different doses, read-out: Max. urethral pressure in vivo, in % of NA-max

Compound	Emax (isolated rabbit urethra; [4])	EC50 [1]	Blood pressure; max change, in % [3]	Emax [1, 8]	EC50 (isolated rabbit urethra; [9])	Emax [2, 10]	further results
COc1cccc(C(O)CN(C)C)c1OC(C)C (single isomer, unassigned) [Compound 6:3, (+)-α-[(dimethylamino)methyl]-3-methoxy-2-(1-methylethoxy)-benzenemethanol]	106%	120 µM	14%				EC50 (isolated rabbit urethra; [5]): 6.5 µM; Portal vein, in vitro: Max. contraction [1, 6]: 34 % of NA-max; Max. urethral pressure in vivo, in % of NA-max [2, 7]: 288 % of NA-max
COc1cccc(C(O)CN(C)C)c1OC(C)C (single isomer, unassigned) [Compound 6:4, (-)-α-[(dimethylamino)methyl]-3-methoxy-2-(1-methylethoxy)-benzenemethanol]			11%				Urethra, in vitro: Max. contraction (isolated rabbit urethra; female rabbit urethra rings): 88 % of NA-max; EC50 (isolated rabbit urethra; [5]): 61 µM; Portal vein, in vitro: Max. contraction [1, 6]: 8 % of NA-max; Max. urethral pressure in vivo, in % of NA-max [2, 7]: 150 % of NA-max
CC(C)Oc1c(Cl)cccc1C(O)CN(C)C (single isomer, unassigned; (+)) [Compound 6:2, (+)-3-chloro-α-[(dimethylamino)methyl]-2-(1-methylethoxy)-benzenemethanol]		17 µM					Urethra, in vitro: Max. contraction (isolated rabbit urethra; female rabbit urethra rings): 107 % of NA-max; EC50 (isolated rabbit urethra; [5]): 4.5 µM; Portal vein, in vitro: Max. contraction [1, 6]: 15 % of NA-max
CC(C)Oc1c(Cl)cccc1C(O)CN(C)C (single isomer, unassigned; (-)) [Compound 6:1]				9%			Urethra, in vitro: Max. contraction (isolated rabbit urethra; female rabbit urethra rings): 69 % of NA-max; EC50 (isolated rabbit urethra; [5]): 21 µM
Cc1cccc(C(O)CN(C)C)c1OC(C)C (stereo not drawn) [Compound 1, α-[(Dimethylamino)methyl]-2-(1-methylethoxy)-3-methyl-benzenemethanol, hydrochloride]	85%	24 µM		47%	24 µM		
CCOc1c(Cl)cccc1C(O)CN(C)C.Cl (stereo not drawn) [Compound 2, 3-Chloro-α-[(dimethylamino)methyl]-2-ethoxy-benzenemethanol, hydrochloride]	105%	6.7 µM	9%	22%	18 µM	123%	
CCN(CC)CC(O)c1cccc(OC)c1OC(C)C (stereo not drawn) [Compound 3, α-[(Diethylamino)methyl]-3-methoxy-2-(1-methylethoxy)-benzenemethanol, hydrogen oxalate]	105%	130 µM	-2%	11%	6.6 µM	131%	
COc1cccc(C(O)CN(C)C)c1OC(C)C (stereo not drawn) [Compound 4, α-[(Dimethylamino)methyl]-3-methoxy-2-(1-methylethoxy)-benzenemethanol, hydrogen oxalate]	95%	87 µM	10%	35%	5.7 µM	211%	
COc1cccc(C(O)CN2CCCC2)c1OC(C)C (stereo not drawn) [Compound 5, 3-Methoxy-2-(1-methylethoxy)-α-pyrrolidinomethyl-benzenemethanol, hydrochloride]							Emax (isolated rabbit urethra; [11]): 68%; EC50 (isolated rabbit urethra; [12]): 110 µM; Emax [1, 13]: 6%
CC(C)Oc1c(Cl)cccc1C(O)CN1CCCC1 (stereo not drawn) [Compound 7, 3-Chloro-2-(1-methylethoxy)-α-pyrrolidinomethyl-benzenemethanol, hydrogen oxalate]			-3%				Emax (isolated rabbit urethra; [11]): 73%; EC50 (isolated rabbit urethra; [12]): 12 µM; Emax [1, 13]: 14%; EC50 [1, 14]: 41 µM; Emax [2, 15]: 189%
CC=COc1c(OC)cccc1C(O)CN1CCCC1.O=C(O)C(=O)O (stereo not drawn) [Compound 8, 3-Methoxy-2-(1-propenyloxy)-α-pyrrolidinomethyl-benzenemethanol, hydrogen oxalate]							Urethra, in vitro: Max. contraction (isolated rabbit urethra; female rabbit urethra rings): 52 % of NA-max; EC50 (isolated rabbit urethra; female rabbit urethra rings, read-out: Urethra, in vitro: EC50-value (effective concentration inducing a half maximum contraction)): 190 µM; Portal vein, in vitro: Max. contraction [1, 6]: 0 % of NA-max
CC(C)Oc1c(Cl)cccc1C(O)CN(C)C.Cl (stereo not drawn) [Compound 9, 3-Chloro-α-[(dimethylamino)methyl]-2-(1-methylethoxy)-benzenemethanol, hydrochloride]	79%	60 µM	14%	22%	11 µM	192%	
CCN(CC)CC(O)c1cccc(Cl)c1OC(C)C (stereo not drawn) [Compound 10, 3-Chloro-α-[(diethylamino)methyl]-2-(1-methylethoxy)-benzenemethanol, hydrogen oxalate]	81%	11 µM		28%	12 µM		
CCN(C)CC(O)c1cccc(Cl)c1OC(C)C.Cl (stereo not drawn) [Compound 11, 3-Chloro-α-[(N-ethyl-N-methylamino)methyl]-2-(1-methylethoxy)-benzenemethanol, hydrochloride]	100%	4.5 µM	34%	54%	5.3 µM	210%	
CC(C)Oc1c(C(O)CN(C)C)cccc1[N+](=O)[O-] (stereo not drawn) [Compound 12, α-[(Dimethylamino)methyl]-2-(1-methylethoxy)-3-nitro-benzenemethanol, hydrochloride]	80%	17 µM		18%	11 µM		
CC(C)Sc1c(Cl)cccc1C(O)CN(C)C (stereo not drawn) [Compound 13, 3-Chloro-α-[(dimethylamino)methyl]-2-(1-methylethylthio)-benzenemethanol, hydrochloride]	45%			4%	77 µM		
COc1cccc(C(O)CN(C)C)c1SC(C)C (stereo not drawn) [Compound 14, α-[(Dimethylamino)methyl]-3-methoxy-2-(1-methylethylthio)-benzenemethanol, hydrochloride]	67%			5%	11 µM		
C=CCOc1c(OC)cccc1C(O)CN(C)C (stereo not drawn) [Compound 15, α-[(Dimethylamino)methyl]-3-methoxy-2-(2-propenyloxy)-benzenemethanol, hydrogen oxalate]	104%	90 µM		11%	47 µM		
NC[C@H](O)c1ccc(O)c(O)c1 [Noradrenaline, noradrenaline, reference compound]							Emax (isolated rabbit urethra; [11]): 100%; EC50 (isolated rabbit urethra; [12]): 16 µM; Emax [1, 13]: 100%; EC50 [1, 14]: 5.3 µM; Emax at 2.5e-05 mg/kg [2, 15]: 100%
CC(N)C(O)c1ccccc1 (stereo not drawn) [PPA, phenylpropanolamine, reference compound]	60%	70 µM	72%	67%	200 µM	99%	
